Target: Protein cereblon/Interleukin-1 receptor-associated kinase 4 (Homo sapiens, UniProt Q9NWZ3+Q96SW2)
Assay: Protac activity at E3 ubiquitin ligase/IRAK4 in human OCILY10 cells assessed as degradation of IRAK4 incubated for 4 hr by MSD assay
Assay type: cell-based

Chain of Protein cereblon/Interleukin-1 receptor-associated kinase 4 (Q9NWZ3 whole entry): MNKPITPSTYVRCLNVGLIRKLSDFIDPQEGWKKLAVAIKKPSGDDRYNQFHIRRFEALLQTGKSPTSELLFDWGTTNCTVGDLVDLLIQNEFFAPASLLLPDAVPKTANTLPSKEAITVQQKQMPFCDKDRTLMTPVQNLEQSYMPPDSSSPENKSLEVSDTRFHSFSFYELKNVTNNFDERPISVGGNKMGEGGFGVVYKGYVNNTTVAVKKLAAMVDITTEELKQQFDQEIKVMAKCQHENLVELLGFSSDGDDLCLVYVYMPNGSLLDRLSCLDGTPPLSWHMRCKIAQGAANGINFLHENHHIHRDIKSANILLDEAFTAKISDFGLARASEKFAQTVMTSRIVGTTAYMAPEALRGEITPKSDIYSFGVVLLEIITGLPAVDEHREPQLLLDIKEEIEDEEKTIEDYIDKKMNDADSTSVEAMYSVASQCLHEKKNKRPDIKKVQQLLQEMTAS
Chain of Protein cereblon/Interleukin-1 receptor-associated kinase 4 (Q96SW2 whole entry): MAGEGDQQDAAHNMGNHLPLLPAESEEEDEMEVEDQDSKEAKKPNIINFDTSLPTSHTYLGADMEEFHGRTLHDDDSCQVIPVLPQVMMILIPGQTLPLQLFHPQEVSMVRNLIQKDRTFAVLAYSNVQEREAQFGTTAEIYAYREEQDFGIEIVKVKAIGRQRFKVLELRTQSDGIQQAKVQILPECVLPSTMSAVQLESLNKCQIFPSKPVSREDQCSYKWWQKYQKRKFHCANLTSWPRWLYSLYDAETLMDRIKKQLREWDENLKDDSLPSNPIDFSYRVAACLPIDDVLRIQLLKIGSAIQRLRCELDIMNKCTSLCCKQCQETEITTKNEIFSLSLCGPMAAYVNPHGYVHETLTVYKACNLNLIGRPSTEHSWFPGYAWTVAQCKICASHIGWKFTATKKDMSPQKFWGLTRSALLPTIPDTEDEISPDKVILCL

DC50, < 10 nM:
CN(C[C@H]1CC[C@H](n2cc3cc(NC(=O)c4cccc(C(F)(F)F)n4)c(C(C)(C)O)cc3n2)CC1)C1CCN(c2ccc3c(N4CCC(=O)NC4=O)cncc3c2)CC1, CN(C[C@H]1CC[C@H](n2cc3cc(NC(=O)c4cccc(C(F)(F)F)n4)c(C(C)(C)O)cc3n2)CC1)C1CCN(c2ccn3c(N4CCC(=O)NC4=O)cnc3c2)CC1, COc1cc2nn([C@H]3CC[C@H](CN(C)C4CCN(c5ccc6c(N7CCC(=O)NC7=O)cncc6c5)CC4)CC3)cc2cc1NC(=O)c1cccc(C(F)(F)F)n1, COc1cc2nc([C@H]3CC[C@H](CN4CCC(c5ccn6c(N7CCC(=O)NC7=O)cnc6c5)CC4)CC3)sc2cc1NC(=O)c1cccc(C(F)(F)F)n1, CN(C[C@H]1CC[C@H](n2cc3cc(NC(=O)c4cccc(C(F)(F)F)n4)ncc3n2)CC1)C1CCN(c2ccn3c(N4CCC(=O)NC4=O)cnc3c2)CC1, CN(C[C@H]1CC[C@H](n2cc3cc(NC(=O)c4cccc(C(F)(F)F)n4)ccc3n2)CC1)C1CCN(c2ccn3c(N4CCC(=O)NC4=O)cnc3c2)CC1

— ChEMBL document CHEMBL5126650, “Novel IRAK Degraders for Treating Cancer” (ACS Med Chem Lett, 2022)
